Experimental data as given in US7611832B2, “Human G protein-coupled receptor and modulators thereof for the treatment of ischemic heart disease and congestive heart failure” (Arena Pharmaceuticals, Inc., priority 2002, dated 2009).

Experiments:
[1] = system: RUP41 transcript in neonatal rat ventricular myocytes (NRVMs); assay: RT-PCR of RUP41 transcript in NRVMs treated with hypertrophic agents; assay type: cell-based; details: 24 hours after addition to media; phenylephrine 100 μM, newborn calf serum 10%
Protocol: Total RNA isolated from NRVMs as described above was used as a template for generation of reverse transcribed DNA (RT-DNA) using the RT for PCR kit (Becton Dickenson) according to manufacturers instructions. RUP41 expression was detected in RT-DNA samples by PCR. PCR conditions were 96° C. for 2 min, followed by 30 cycles of 96° C. for 30 sec, 55° C. for 30 sec, and 72° C. for 2 min, followed by 72° C. for 10 min. 20 μl of the reaction was loaded onto 1.5% agarose gel to analyze the RT-PCR products.

RUP41 mRNA in NRVMs = assay: Northern blot of RUP41 mRNA in NRVMs treated with hypertrophic agents; details: 24 hour treatment; PE 100 μM, PMA 100 nM, PGF2α 1 μM, NCS 10%

Molecule | RUP41 transcript levels (RT-PCR) [1] | RUP41 mRNA expression (Northern blot) (RUP41 mRNA in NRVMs)
CNC[C@H](O)c1cccc(O)c1 [phenylephrine] | drop dramatically | decreased level
CCCCCCCCCCCCCC(=O)O[C@@H]1[C@@H](C)[C@@]2(O)[C@@H](C=C(CO)C[C@]3(O)C(=O)C(C)=C[C@@H]23)[C@@H]2C(C)(C)[C@]12OC(C)=O [phorbol 12-myristate 13-acetate] |  | decreased level
prostaglandin F2α |  | decreased level
